# Results reported in patent US9440097B2, “Organic compounds” (Givaudan SA, priority 2005, dated 2016).
# Where two headings read alike, the source gives them in different places.
# Tested on: PGE2 formation in normal human epidermal keratinocytes (NHEK)
# Experiment: Inhibition of PGE2 formation in irritated keratinocyte cultures (PGE2 immunoassay)
# Assay type: cell-based
# Conditions: 24 h; for inhibition at 50 µM: Homo sapiens, NHEK, read-out: relative inhibition in % of PGE2 formation in keratinocyte cultures at 50 μM; for relative inhibition in % of PGE2 formation in keratinocyte cultures at μM: column head prints only 'μM' (method: 50 μM or 10 μM), calcimycin 2.5 μM
# Description: A confluent culture was trypsinated and adjusted to a density of 5×10^4 cells/ml. The cells were then seeded in the same medium but with only 1% fetal calf serum in 24 well plates and cultivated for a period of 48 h. A model irritating agent was then applied to the cells by adding calcimycin to a final level of 2.5 μM. The individual compounds, as listed below, dissolved in DMSO were added simultaneously. The final concentration of the compounds was 50 μM or 10 μM, the final DMSO concentration was adjusted to 1% (v/v). Parallel treatments received no calcimycin (non-irritated control) or calcimycin without compounds according to the present invention (irritated control). The DMSO concentration was adjusted to 1% in all these control treatments. […] The prostaglandin levels in treated cell cultures were compared to the irritated and non-irritated control cultures in order to determine the relative inhibition of PGE2 formation.
# [1] = 50 μM compound, irritated with calcimycin 2.5 μM, 1% DMSO
SMILES,inhibition at 50 µM [1],relative inhibition in % of PGE2 formation in keratinocyte cultures at μM (1% DMSO),inhibition at 50 µM
N#CC(=C1CCCC1)c1ccccc1 [2-Cyclopentylidene-2-phenylacetonitrile],80.8%,71.1%,
CCC(CC)=C(C#N)c1ccccc1 [3-Ethyl-2-phenylpent-2-enenitrile],73.2%,63.9%,
"CCCCCCCC1CCCC1=O (stereo not drawn) [ALISMONE ™, 2-heptylcyclopentanone]",92.4%,47%,
"CCC(C)C(=O)OCCc1ccccc1 (stereo not drawn) [ANATOLYL ™, phenethyl 2-methylbutanoate]",50.5%,,
"CC=Cc1ccc(OC)cc1 [ANETHOLE, 1-methoxy-4-(prop-1-enyl)benzene]",51%,,
"CCCCCOC(=O)c1ccccc1O [Amyl salicylate, pentyl 2-hydroxybenzoate]",89.8%,73.5%,
"CC(C)(C)c1ccc(CCC=O)cc1 [BOURGEONAL ™, 3-(4-tert-butylphenyl)propanal]",65%,,
"CC(C)(C)C(=O)OCCc1ccccc1 [CENTIFOLYL ™, phenethyl pivalate]",39%,,
"CC(C=O)Cc1ccc(C(C)C)cc1 (stereo not drawn) [CYCLAMEN ALDEHYDE ™, 2-Methyl-3-(4-isopropylphenyl)propanal]",82%,32%,
CC(=O)OCC=Cc1ccccc1 [Cinnamyl acetate],47.8%,,
O=C(C=Cc1ccccc1)OCC=Cc1ccccc1 [Cinnamyl cinnamate],64%,,
"O=C(OC1CCCCC1)c1ccccc1O [Cyclohexyl salicylate, cyclohexyl 2-hydroxybenzoate]",97.4%,76.6%,
CC(C)COC(=O)c1ccccc1 [Isobutyl benzoate],52.5%,,
"CC(C)COC(=O)c1ccccc1O [Isobutyl salicylate, isobutyl 2-hydroxybenzoate]",69.1%,73.1%,
"CCOc1cc(COC)ccc1O [METHYL DIANTILIS ®, 2-Ethoxy-4-(methoxymethyl)phenol]",,88.2%,
"CCOc1ccc2ccccc2c1 [NEROLINE ™ CRIST, 2-ethoxynaphthalene]",83%,50.2%,
"N#CC(=C1CCCCC1)c1ccccc1 [PEONILE ®, 2-cyclohexylidene-2-phenylacetonitrile]",93.3%,92.4%,
"CCOc1cc(COC(C)C)ccc1O [PROPYL DIANTILIS, 2-Ethoxy-4-(isopropoxymethyl)phenol]",,95.1%,90.9%
O=C(OCCc1ccccc1)c1ccccc1 [Phenethyl benzoate],92.4%,56.9%,
O=C(C=Cc1ccccc1)OCCc1ccccc1 [Phenethyl cinnamate],91.7%,93.6%,
CC(C)C(=O)OCCc1ccccc1 [Phenethyl isobutyrate],44.8%,,
O=C(OCCc1ccccc1)c1ccccc1O [Phenethyl salicylate],50.9%,,
"CC(C)Cc1ccc(CC(C)C=O)cc1 (stereo not drawn) [SILVIAL ®, 2-Methyl-3-(4-(2-methylpropyl)phenyl)propanal]",62.7%,,
"CC=C(C)C(=O)OCc1ccccc1 [TIGLATE BENZYLE, benzyl 2-methylbut-2-enoate]",72.4%,50.2%,
"COc1ccc(CC2CC2)cc1 [TOSCANOL ®, 1-(cyclopropylmethyl)-4-methoxybenzene]",56.7%,,
CC/C=C\CCOC(=O)c1ccccc1O [cis-3-Hexen-1-yl salicylate],94.8%,81.4%,
CCCCCCOC(=O)c1ccccc1O [n-Hexyl salicylate],82.9%,91.6%,
